ChEMBL document CHEMBL5634092, “Design, synthesis, and biological evaluation of novel HDAC/CD13 dual inhibitors for the treatment of cancer” (Eur J Med Chem, 2023)

Tests used:
[1] = target: T1, Aminopeptidase N (Sus scrofa, UniProt P15145); test: Inhibition of porcine kidney CD13 using L-leucine-p-nitroanilide as substrate incubated for 30 mins by microplate reader analysis
T1 sequence (P15145 whole entry): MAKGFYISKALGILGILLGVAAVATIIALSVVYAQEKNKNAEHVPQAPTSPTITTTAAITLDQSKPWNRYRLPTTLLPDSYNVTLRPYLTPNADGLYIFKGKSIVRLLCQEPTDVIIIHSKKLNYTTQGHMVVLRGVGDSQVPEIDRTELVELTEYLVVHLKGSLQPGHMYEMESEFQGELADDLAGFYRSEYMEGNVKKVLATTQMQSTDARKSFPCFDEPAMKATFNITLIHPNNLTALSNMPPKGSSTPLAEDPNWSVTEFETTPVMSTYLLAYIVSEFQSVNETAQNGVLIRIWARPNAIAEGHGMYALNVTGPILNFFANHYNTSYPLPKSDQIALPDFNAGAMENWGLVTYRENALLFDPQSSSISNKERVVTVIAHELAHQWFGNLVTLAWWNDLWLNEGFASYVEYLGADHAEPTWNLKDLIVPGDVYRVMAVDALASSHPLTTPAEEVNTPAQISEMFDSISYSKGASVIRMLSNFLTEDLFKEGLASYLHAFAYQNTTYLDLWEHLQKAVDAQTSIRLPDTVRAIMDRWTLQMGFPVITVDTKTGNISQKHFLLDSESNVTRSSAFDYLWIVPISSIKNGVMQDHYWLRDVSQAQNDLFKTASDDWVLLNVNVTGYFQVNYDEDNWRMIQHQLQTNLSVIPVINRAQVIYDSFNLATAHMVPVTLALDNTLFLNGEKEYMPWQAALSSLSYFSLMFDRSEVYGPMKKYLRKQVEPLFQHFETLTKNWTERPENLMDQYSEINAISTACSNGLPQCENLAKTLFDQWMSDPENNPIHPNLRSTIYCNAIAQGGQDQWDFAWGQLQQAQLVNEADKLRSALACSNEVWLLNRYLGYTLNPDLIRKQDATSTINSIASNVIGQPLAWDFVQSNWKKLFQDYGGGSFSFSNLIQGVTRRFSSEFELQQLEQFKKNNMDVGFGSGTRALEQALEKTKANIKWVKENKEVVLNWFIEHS

[2] = target: Histone deacetylase 3 (Homo sapiens, UniProt O15379); test: Inhibition of human HDAC3 using Boc-Lys (acetyl)-AMC as substrate incubated for 1 hr followed by substrate addition and further incubated for 2 hrs by fluorescence assay
[3] = target: T2, Protein deacetylase HDAC6 (Homo sapiens, UniProt Q9UBN7); test: Inhibition of human HDAC6 using Boc-Lys (acetyl)-AMC as substrate incubated for 1 hr followed by substrate addition and further incubated for 2 hrs by fluorescence assay
T2 sequence (Q9UBN7 whole entry): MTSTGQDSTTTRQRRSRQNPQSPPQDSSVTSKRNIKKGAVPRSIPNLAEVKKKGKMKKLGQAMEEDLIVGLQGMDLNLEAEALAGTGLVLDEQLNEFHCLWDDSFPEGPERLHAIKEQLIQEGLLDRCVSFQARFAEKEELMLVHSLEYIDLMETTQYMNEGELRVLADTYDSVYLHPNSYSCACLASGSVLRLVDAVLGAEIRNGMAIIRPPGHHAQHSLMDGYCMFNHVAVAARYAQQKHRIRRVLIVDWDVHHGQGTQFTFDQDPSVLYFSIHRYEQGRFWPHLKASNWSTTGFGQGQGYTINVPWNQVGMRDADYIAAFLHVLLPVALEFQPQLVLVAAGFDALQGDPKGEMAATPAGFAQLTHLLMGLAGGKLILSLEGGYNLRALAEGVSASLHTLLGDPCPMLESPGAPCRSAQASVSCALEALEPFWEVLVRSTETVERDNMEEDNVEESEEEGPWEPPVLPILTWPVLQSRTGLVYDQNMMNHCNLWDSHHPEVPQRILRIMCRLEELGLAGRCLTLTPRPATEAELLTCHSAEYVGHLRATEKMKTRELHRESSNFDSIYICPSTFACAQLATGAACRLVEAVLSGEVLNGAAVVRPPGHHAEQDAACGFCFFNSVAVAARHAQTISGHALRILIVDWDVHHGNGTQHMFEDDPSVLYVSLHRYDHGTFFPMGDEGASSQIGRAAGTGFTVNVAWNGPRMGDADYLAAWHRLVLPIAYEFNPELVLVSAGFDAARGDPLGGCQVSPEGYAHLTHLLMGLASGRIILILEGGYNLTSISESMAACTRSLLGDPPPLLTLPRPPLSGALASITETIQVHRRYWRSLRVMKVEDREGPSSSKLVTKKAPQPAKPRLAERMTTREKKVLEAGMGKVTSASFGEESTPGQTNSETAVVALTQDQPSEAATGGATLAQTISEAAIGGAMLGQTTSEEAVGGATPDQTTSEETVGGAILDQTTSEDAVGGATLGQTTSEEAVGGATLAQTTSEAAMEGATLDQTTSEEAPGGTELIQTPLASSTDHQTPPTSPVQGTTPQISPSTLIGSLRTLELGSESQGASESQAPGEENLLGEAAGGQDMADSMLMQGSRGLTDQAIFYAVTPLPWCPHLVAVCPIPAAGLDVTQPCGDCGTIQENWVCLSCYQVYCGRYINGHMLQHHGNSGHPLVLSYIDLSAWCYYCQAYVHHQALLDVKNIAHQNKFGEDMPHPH

[4] = target: T3, Histone deacetylase 8 (Homo sapiens, UniProt Q9BY41); test: Inhibition of human HDAC8 using Boc-Lys (tri-fluoroacetyl)-AMC as substrate incubated for 1 hr followed by substrate addition and further incubated for 2 hrs by fluorescence assay
T3 sequence (Q9BY41 whole entry): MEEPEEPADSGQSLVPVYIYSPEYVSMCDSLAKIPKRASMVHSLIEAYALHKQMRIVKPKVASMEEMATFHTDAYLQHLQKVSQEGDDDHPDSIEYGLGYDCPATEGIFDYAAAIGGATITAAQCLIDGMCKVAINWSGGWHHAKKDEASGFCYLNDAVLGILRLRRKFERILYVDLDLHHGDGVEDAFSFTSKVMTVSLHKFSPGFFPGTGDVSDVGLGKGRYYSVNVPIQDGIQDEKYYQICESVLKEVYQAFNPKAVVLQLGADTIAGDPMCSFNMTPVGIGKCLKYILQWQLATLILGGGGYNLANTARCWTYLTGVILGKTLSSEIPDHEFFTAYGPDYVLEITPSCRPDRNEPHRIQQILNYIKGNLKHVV

[5] = tested on: MV4-11; test: Antiproliferative activity against human MV4-11 cells incubated for 48 hrs by resazurin based microplate reader analysis; conditions: MV4-11, 48 h
[6] = target: Histone deacetylase 1 (Homo sapiens, UniProt Q13547); test: Inhibition of human HDAC1 using Boc-Lys (acetyl)-AMC as substrate incubated for 1 hr followed by substrate addition and further incubated for 2 hrs by fluorescence assay
[7] = target: Histone deacetylase 2 (Homo sapiens, UniProt Q92769); test: Inhibition of human HDAC2 using Boc-Lys (acetyl)-AMC as substrate incubated for 1 hr followed by substrate addition and further incubated for 2 hrs by fluorescence assay
[8] = target: Aminopeptidase N (Homo sapiens, UniProt P15144); test: Inhibition of human CD13 using L-leucine-p-nitroanilide as substrate incubated for 30 mins by microplate reader analysis
[9] = tested on: HL-60; test: Antiproliferative activity against human HL-60 cells incubated for 48 hrs by resazurin based microplate reader analysis; conditions: HL-60, 48 h
[10] = tested on: K562; test: Antiproliferative activity against human K562 cells incubated for 48 hrs by resazurin based microplate reader analysis; conditions: K562, 48 h
[11] = tested on: JeKo-1; test: Antiproliferative activity against human JeKo-1 cells incubated for 48 hrs by resazurin based microplate reader analysis; conditions: JeKo-1, 48 h
[12] = Cytotoxicity against human HL7702 cells incubated for 48 hrs by resazurin based microplate reader analysis; conditions: HL7702 (L02) cells
[13] = tested on: A549; test: Induction of apoptosis in human A549 cells assessed as apoptotic rate at 20 uM incubated for 24 hrs by Annexin V-FITC staining based flow cytometry (reference value: 8.02 %); type: functional
[14] = tested on: A549; test: Antiproliferative activity against human A549 cells incubated for 48 hrs by resazurin based microplate reader analysis; conditions: A549, 48 h
[15] = tested on: BXPC-3; test: Antiproliferative activity against human BXPC-3 cells incubated for 48 hrs by resazurin based microplate reader analysis; conditions: BXPC-3, 48 h
[16] = tested on: MV4-11; test: Induction of apoptosis in human MV4-11 cells assessed as apoptotic rate at 2 uM incubated for 24 hrs by Annexin V-FITC staining based flow cytometry (reference value: 24.09 %); type: functional

Histone deacetylase 1, sequence (Q13547 whole entry): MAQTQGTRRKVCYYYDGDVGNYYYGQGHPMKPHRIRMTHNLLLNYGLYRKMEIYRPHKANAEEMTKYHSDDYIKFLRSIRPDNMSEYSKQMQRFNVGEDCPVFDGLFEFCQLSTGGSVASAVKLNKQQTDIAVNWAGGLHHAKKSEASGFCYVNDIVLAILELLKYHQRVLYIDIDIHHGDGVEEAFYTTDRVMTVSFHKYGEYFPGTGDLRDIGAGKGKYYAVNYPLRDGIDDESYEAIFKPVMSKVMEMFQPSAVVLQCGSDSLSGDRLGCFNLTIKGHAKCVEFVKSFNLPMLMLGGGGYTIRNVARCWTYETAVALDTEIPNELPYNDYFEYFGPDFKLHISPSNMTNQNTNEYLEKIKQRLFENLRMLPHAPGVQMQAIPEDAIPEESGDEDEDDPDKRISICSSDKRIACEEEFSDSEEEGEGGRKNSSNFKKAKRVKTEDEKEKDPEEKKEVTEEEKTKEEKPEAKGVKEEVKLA
Histone deacetylase 3, sequence (O15379 whole entry): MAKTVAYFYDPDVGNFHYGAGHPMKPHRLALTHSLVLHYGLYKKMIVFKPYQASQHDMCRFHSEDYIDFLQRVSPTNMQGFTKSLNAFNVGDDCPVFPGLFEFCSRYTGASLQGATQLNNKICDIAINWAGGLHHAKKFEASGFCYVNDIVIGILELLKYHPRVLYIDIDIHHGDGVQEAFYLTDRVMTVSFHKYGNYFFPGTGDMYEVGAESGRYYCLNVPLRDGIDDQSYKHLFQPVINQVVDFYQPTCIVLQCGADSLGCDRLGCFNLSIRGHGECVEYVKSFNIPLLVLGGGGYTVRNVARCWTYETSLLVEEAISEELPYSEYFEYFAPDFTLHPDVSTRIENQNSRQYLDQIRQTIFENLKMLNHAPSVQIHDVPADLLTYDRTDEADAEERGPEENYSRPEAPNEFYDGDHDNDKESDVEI
Histone deacetylase 2, sequence (Q92769 whole entry): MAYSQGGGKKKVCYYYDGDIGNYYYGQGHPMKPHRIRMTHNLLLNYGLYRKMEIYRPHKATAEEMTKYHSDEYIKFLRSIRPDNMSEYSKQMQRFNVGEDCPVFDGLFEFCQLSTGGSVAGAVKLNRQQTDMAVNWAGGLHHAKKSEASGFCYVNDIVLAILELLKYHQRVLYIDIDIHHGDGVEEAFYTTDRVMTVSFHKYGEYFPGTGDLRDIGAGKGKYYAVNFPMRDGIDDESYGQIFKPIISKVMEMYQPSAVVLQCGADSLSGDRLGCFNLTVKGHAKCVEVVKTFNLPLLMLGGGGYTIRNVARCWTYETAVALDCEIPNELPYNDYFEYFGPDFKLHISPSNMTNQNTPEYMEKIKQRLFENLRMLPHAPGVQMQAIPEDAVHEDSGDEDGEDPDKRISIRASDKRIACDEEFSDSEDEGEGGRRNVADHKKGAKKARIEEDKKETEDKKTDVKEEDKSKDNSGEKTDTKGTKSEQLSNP
Aminopeptidase N (Homo sapiens, UniProt P15144), sequence (P15144 whole entry): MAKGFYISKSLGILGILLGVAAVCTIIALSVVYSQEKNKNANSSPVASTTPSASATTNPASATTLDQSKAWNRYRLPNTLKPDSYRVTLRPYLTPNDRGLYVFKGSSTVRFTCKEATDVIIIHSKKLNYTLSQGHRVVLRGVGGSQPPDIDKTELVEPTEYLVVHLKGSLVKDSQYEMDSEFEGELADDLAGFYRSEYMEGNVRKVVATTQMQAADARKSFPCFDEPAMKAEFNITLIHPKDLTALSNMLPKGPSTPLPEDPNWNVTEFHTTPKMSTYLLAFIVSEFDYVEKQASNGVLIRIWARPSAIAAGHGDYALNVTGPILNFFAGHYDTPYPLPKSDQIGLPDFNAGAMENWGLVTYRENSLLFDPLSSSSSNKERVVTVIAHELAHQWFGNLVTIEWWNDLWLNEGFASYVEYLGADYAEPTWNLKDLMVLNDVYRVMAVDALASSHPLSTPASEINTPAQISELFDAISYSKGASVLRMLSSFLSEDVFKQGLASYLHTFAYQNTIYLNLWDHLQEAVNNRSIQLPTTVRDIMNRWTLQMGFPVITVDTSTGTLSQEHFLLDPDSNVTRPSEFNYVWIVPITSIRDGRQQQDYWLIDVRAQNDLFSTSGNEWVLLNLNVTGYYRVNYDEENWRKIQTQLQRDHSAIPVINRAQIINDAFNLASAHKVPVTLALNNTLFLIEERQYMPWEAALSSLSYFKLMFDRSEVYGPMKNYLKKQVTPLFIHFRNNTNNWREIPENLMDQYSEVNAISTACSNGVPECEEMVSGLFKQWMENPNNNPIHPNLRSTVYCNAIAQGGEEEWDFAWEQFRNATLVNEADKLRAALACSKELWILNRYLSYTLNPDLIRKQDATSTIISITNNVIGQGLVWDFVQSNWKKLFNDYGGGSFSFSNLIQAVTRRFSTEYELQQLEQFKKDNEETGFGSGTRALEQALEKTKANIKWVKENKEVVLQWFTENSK

| Structure (SMILES) | IC50 [1] [nM] | IC50 [2] [nM] | other results |
| --- | --- | --- | --- |
| CCCNNC(=O)c1ccc(CNC(=O)[C@H](CC(C)C)NC(=O)NCc2cccc3ccccc23)cc1 | > 20000 | 120 |  |
| O=C(CCCCCCC(=O)Nc1ccccc1)NO [VORINOSTAT] | > 20000 |  |  |
| CCCNNC(=O)[C@H](CC(C)C)NC(=O)[C@@H](O)[C@H](N)Cc1ccccc1 | 18200 | > 10000 | IC50 [5]: > 20000 nM; IC50 [6]: > 10000 nM; IC50 [7]: > 10000 nM |
| CCCNNC(=O)c1ccc(CNC(=O)[C@H](CC(C)C)NC(=O)[C@H](O)[C@@H](N)Cc2ccccc2)cc1 | > 20000 | 60 | IC50 [8]: > 20000 nM |
| CCCNNC(=O)c1ccc(CNC(=O)[C@H](CC(C)C)NC(=O)Nc2c(C)cccc2C)cc1 | > 20000 | 290 |  |
| CC(C)C[C@H](NC(=O)[C@@H](O)[C@H](N)Cc1ccccc1)C(=O)O [UBENIMEX] |  | > 10000 | IC50 [5]: > 20000 nM; IC50 [6]: > 10000 nM; IC50 [7]: > 10000 nM |

Further lines, with some results ahead:

| IC50 [1] [nM] | IC50 [2] [nM] | Structure (SMILES) | other results |
| --- | --- | --- | --- |
| 3030 | 90 | CCCNNC(=O)CCCCCNC(=O)[C@H](CC(C)C)NC(=O)[C@@H](O)[C@H](N)Cc1ccccc1 |  |
| 550 | 1430 | CC(C)C[C@H](NC(=O)[C@@H](O)[C@H](N)Cc1ccccc1)C(=O)NCc1ccc(C(=O)NO)cc1 | IC50 [3]: 330 nM; IC50 [4]: 1350 nM |
| 1630 | 60 | CC(C)C[C@H](NC(=O)[C@@H](O)[C@H](N)Cc1ccccc1)C(=O)NCc1ccc(C(=O)Nc2ccccc2N)cc1 |  |
| 2690 |  | CCCNNC(=O)c1ccc(CNC(=O)[C@H]2CCCN2C(=O)[C@H](CC(C)C)NC(=O)[C@@H](O)[C@H](N)Cc2ccccc2)cc1 |  |
| 400 | 80 | CCCNNC(=O)c1ccc(CNC(=O)[C@H](CC(C)C)NC(=O)[C@@H](NC(=O)[C@@H](O)[C@H](N)Cc2ccccc2)[C@@H](C)CC)cc1 |  |
| 9530 | 50 | CCCNNC(=O)CCCCCCNC(=O)[C@H](CC(C)C)NC(=O)[C@@H](O)[C@H](N)Cc1ccccc1 |  |
| 1350 | 2420 | COC(=O)c1ccc(CNC(=O)[C@H](CC(C)C)NC(=O)[C@@H](O)[C@H](N)Cc2ccccc2)cc1.Cl | IC50 [9]: > 20000 nM; IC50 [10]: > 20000 nM; IC50 [11]: > 20000 nM; IC50 [5]: > 20000 nM; IC50 at 48 h [12]: > 100000 nM; Activity [13]: 8.31%; IC50 [14]: > 20000 nM; IC50 [6]: > 10000 nM; IC50 [15]: > 20000 nM; Activity [16]: 33.7%; IC50 [8]: 480 nM; IC50 [7]: > 10000 nM |
